Experimental data from ChEMBL document CHEMBL3044594, “Comparison of the inhibitory action of synthetic capsaicin analogues with various NADH-ubiquinone oxidoreductases” (Biochim Biophys Acta, 1996).
The source made the active and inactive calls. The rule behind the calls is not given here.

Key:
Escherichia coli = experiment: Inhibition of Escherichia coli GR19N NDH2 assessed as […] reductase activity at 100 uM relative to control
Solanum tuberosum [1] = experiment: Inhibition of Solanum tuberosum (potato) inner mitochondrial membrane NDH2 assessed as […] reductase activity at 100 uM relative to control
Solanum tuberosum [2] = experiment: Inhibition of Solanum tuberosum (potato) submitochondrial particle NDH1 assessed as deaminoNADH-DB reductase activity

| SMILES | inhibition (Escherichia coli) | inhibition (Solanum tuberosum [1]) | pI50 (Solanum tuberosum [2]) |
| --- | --- | --- | --- |
| CCCCc1ccc(Oc2ccc(C(=O)NCc3ccc(OC)c(OC)c3)cc2)cc1 | 60% | inactive | – |
| CCCCCCCCCC(=O)NCCCc1ccc(OC)c(OC)c1 | 40% | inactive | inactive |
| CCCCCCCCCCCC(=O)NCc1cccc(OC)c1OC | inactive | inactive | – |
| COc1ccc(CNC(=O)c2ccccc2C)cc1OC | inactive | inactive | inactive |
| CCCCCCCCCCCC(=O)NCc1ccccc1OC | inactive | inactive | – |
| CCCCCCCCCCCC(=O)NCc1cc(OC)ccc1OC | inactive | 100% | – |
| CCCCCCCCc1ccc(C(=O)NCc2cc(OC)ccc2OC)cc1 | 60% | – | – |
| CCC(C)(C)c1ccc(Oc2ccc(C(=O)NCc3ccc(OC)c(OC)c3)cc2)cc1 | 60% | – | – |
| COc1ccc(CNC(=O)c2ccc(C(C)(C)C)cc2)cc1OC | inactive | inactive | inactive |
| C=C(C)[C@H]1Cc2c(ccc3c2O[C@@H]2COc4cc(OC)c(OC)cc4[C@@H]2C3=O)O1 | 70% | inactive | – |
| CCCCCCCCCCCNC(=O)Cc1ccc(OC)c(OC)c1 | inactive | inactive | – |
| CCCCCCCCCCCC(=O)N1CCc2cc(OC)c(OC)cc2C1 | inactive | – | – |
| CCCCCCCCCCCC(=O)NCc1cccc(OC)c1 | inactive | 60% | – |
| COc1ccc(CN(C)C(=O)c2ccc(Oc3ccc(C(C)(C)C)cc3)cc2)cc1OC | 40% | inactive | – |
| CCCCCCCCCCCC(=O)N(C)Cc1ccc(OC)c(OC)c1 | inactive | – | – |
| CCCCCCCCCCOc1ccc(C(=O)NCc2ccc(OC)c(OC)c2)cc1 | 70% | inactive | inactive |
| CCCCCCCCCCCCNCc1ccc(OC)c(OC)c1 | inactive | – | – |
| CCCCCCCOc1cccc(C(=O)NCc2ccc(OC)c(OC)c2)c1 | 60% | inactive | – |
| CCCCCCCOc1ccc(C(=O)NCc2ccc(OC)c(OC)c2)cc1 | 60% | inactive | – |
| COc1ccc(CNC(=O)c2ccc(Oc3ccccc3C)cc2)cc1OC | 90% | – | inactive |
| CCCCCCCCCCCC(=O)NCc1ccccc1 | inactive | inactive | – |
| COc1cc(CNC(=O)CCCC/C=C/C(C)C)ccc1O | 20% | inactive | – |
| CCCCCCCCCCCC(=O)NCc1ccc(Cl)c(Cl)c1 | 70% | inactive | – |
| CCCCCCCCCCCC(=O)NCc1ccc(OC)cc1 | 80% | 100% | – |
| CCCCc1ccc(C(=O)NCc2ccc(OC)c(OC)c2)cc1 | inactive | inactive | inactive |
| COc1ccc(CNC(=O)c2ccc(-c3ccccc3)cc2)cc1OC | inactive | inactive | – |
| CCCCCCCOc1ccc(C(=O)NCc2ccc(OC)c(OC)c2)c(O)c1 | 90% | 30% | – |

| SMILES | inhibition (Escherichia coli) | inhibition (Solanum tuberosum [1]) | pI50 (Solanum tuberosum [2]) |
| --- | --- | --- | --- |
| COc1ccc(CNC(=O)c2ccc(OCc3ccccc3)cc2)cc1OC | inactive | inactive | inactive |
| CCCCCCCCCCCC(=O)N(C)Cc1cc(OC)ccc1OC | 30% | – | – |
| CCCCCCCCCCCCC(=O)Nc1ccc(OC)c(OC)c1 | inactive | inactive | – |
| CCCCCCCCCCNC(=O)CCc1ccc(OC)c(OC)c1 | 40% | inactive | – |
| COc1ccc(CNC(=O)c2ccc(C)cc2)cc1OC | inactive | inactive | – |
| COc1ccc(CNC(=O)c2ccc(Oc3ccc(C(C)(C)C)cc3)cc2)cc1OC | 60% | 100% | – |
| COc1ccc(CNC(=O)c2ccccc2)cc1OC | inactive | inactive | inactive |
| C/C=C(\C)[C@H](O)[C@H](C)/C=C(C)/C=C/C/C(C)=C/Cc1nc(OC)c(OC)c(O)c1C | 50% | – | – |
| CCCCCCCCCCCC(=O)NCc1ccc(OC)c(OC)c1 | inactive | – | – |
| CCCCCCCCc1ccc(C(=O)NCc2ccc(OC)c(OC)c2)cc1 | 50% | inactive | – |
| CCCCCCCCCCCC(=O)NCc1ccc(OC)cc1OC | inactive | inactive | – |
| CCCCCCCCCCCC(=O)NCc1cc(C)ccc1C | 60% | inactive | – |
| CCCCCCCCCCCC(=O)NCc1cc(OC)cc(OC)c1 | inactive | inactive | – |
| CCCCCCCCCCC(=O)NCCc1ccc(OC)c(OC)c1 | inactive | inactive | – |
| COc1ccc(OC)c(CNC(=O)c2ccc(Oc3ccc(C(C)(C)C)cc3)cc2)c1 | 60% | – | – |
| COc1ccc(CNC(=O)c2cccc3ccccc23)cc1OC | inactive | inactive | – |
| Cc1nn(C)c(Oc2ccccc2)c1/C=N/OCc1ccc(C(=O)OC(C)(C)C)cc1 | 60% | – | – |
| CCCCCCCCCCCCNC(=O)c1ccc(OC)c(OC)c1 | inactive | inactive | – |
| COc1ccc(CNC(=O)c2ccc3ccccc3c2)cc1OC | inactive | inactive | – |
| CCCCCCCCCCCC(=O)NCc1ccc2c(c1)OCO2 | 60% | inactive | – |
| CCCCCCCCCCCC(=O)NCc1ccc(C)c(C)c1 | 60% | inactive | – |
| CCCCCCCCCCCC(=O)NCc1ccc(O)c(OC)c1 | 70% | inactive | inactive |
| CCCCCCCCc1ccc(C(=O)N(C)Cc2ccc(OC)c(OC)c2)cc1 | 60% | – | – |
| COc1ccc(CNCc2ccc(Oc3ccc(C(C)(C)C)cc3)cc2)cc1OC | 60% | inactive | – |
| COc1ccc(CNC(=O)c2ccc(Oc3ccc(Cc4ccccc4)cc3)cc2)cc1OC | 50% | inactive | – |
| COc1ccc(CNC(=O)c2ccc(Oc3ccc(C)cc3)cc2)cc1OC | inactive | inactive | inactive |
